Consider 18 molecules from patent US6391595B1, “Transferase and amylase, process for producing the enzymes, use thereof, and gene coding for the same” (Kirin Beer Kabushiki Kaisha, priority 1994, dated 2002).

Like-named read-outs stand apart in the source and are kept apart here.

Experiment [1] relates to debranching enzyme derived from the Sulfolobus solfataricus strain KM1. The experiment can be described thus: Influence of activators and inhibitors on debranching enzyme activity. The format is biochemical. The following applies: for Residual activity: Concentration 5 mM.
The target of experiment [2] is T1, amylase derived from the Sulfolobus solfataricus strain KM1 (Saccharolobus solfataricus, UniProt Q55088).
T1 construct: endogenous in cells; host or cells: Sulfolobus solfataricus strain KM1 cells
T1 sequence (Q55088 1-559): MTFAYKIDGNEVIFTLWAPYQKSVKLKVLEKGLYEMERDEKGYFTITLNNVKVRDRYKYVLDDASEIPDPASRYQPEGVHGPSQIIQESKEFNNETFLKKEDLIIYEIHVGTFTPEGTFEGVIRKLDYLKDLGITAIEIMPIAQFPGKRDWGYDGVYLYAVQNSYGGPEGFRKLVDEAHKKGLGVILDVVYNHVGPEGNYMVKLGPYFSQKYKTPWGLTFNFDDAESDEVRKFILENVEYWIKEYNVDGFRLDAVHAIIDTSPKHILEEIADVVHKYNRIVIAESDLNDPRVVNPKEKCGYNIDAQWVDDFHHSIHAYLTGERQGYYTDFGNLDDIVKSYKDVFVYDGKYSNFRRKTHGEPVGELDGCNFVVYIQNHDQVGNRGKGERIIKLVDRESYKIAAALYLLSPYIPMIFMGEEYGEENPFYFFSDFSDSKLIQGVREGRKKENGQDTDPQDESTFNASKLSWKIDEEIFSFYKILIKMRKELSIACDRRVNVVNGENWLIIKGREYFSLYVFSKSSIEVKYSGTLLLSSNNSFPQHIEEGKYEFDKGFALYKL
The experiment can be described thus: biochemical. It is filed as biochemical. The following applies: for Activating or inhibitory effect: added with the substrate.

Experiment [3] relates to transferase derived from the Sulfolobus solfataricus strain KM1. The experiment can be described thus: Influence of activators and inhibitors on glucosyltrehalose-producing activity. The following applies: for Activating or inhibitory effect: added with the substrate. It is filed as biochemical.
In experiment [4] the target is T1, amylase derived from the Sulfolobus solfataricus strain KM1. The experiment can be described thus: Substrate specificity of the purified amylase (hydrolyzing properties, TSK-gel Amide-80 HPLC). The format is biochemical. The following applies: for Liberated oligosaccharide / Production rate of mono- and disaccharides: 25.0 Units/ml enzyme, 10 mM substrate (amylopectin and soluble starch 2.8%); for Production rate of mono- and disaccharides: 1 Unit = 1 μmol per hour. The protocol: The hydrolyzing properties were analyzed by allowing 25.0 Units/ml (in terms of the enzymatic activity when maltotriosyltrehalose is used as the substrate) of the present purified enzyme to act on the various 10 mM substrates (except amylopectin and soluble starch were used as 2.8% solutions) listed in Table 16 below, and the hydrolyzed products were also analyzed.
Incidentally, each enzymatic activity in Table 16 is expressed with such a unit as 1 Unit equals the activity of liberating 1 μmol of each of the monosaccharide and disaccharide per hour.

Experiment [5] deals with T2, swine pancreatic α-amylase (Sus scrofa, UniProt P00690).
T2 construct: purchased Sigma Co. A-6255
T2 sequence (P00690 16-511): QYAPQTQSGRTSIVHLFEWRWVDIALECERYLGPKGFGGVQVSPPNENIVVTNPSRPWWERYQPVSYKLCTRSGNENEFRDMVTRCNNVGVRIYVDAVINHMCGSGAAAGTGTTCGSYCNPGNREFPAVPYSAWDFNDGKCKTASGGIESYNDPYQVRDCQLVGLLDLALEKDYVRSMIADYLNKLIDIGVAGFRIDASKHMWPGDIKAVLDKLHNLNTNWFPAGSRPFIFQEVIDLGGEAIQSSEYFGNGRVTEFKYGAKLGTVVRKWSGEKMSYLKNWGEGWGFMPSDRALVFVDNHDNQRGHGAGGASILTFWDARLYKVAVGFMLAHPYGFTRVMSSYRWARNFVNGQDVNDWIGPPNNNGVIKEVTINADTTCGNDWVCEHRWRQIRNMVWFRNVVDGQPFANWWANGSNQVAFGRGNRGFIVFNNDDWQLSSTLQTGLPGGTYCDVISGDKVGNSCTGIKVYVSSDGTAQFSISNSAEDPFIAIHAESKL
The experiment can be described thus: Hydrolysis of oligosaccharides by pancreatic α-amylase (comparative). The format is biochemical. The following applies: 1 Unit/ml α-amylase, 10 mM substrate, pH 6.9, 20° C.; for Production rate of di- and trisaccharides: 1 Unit = 1 umol per hour. As to the method:
Swine pancreatic α-amylase is known to hydrolyze maltooligosaccharide from the reducing end by two or three sugar units [“Denpun.Kanren Toushitsu Kouso Jikken-hou” (“Experimental methods in enzymes for starch and relating saccharides”), p 135, written by Michinori Nakamura and Keiji Kainuma, published by Gakkai-Shuppan-Sentah]. Upon this, a swine pancreatic α-amylase (manufactured by Sigma Co., A-6255) was analyzed the hydrolyzing properties and the hydrolysates as a comparative example for the novel amylase of the present invention. […] The activity of producing disaccharide and trisaccharide was employed as the index of the enzymatic activity, and the analysis was performed by the TSK-gel Amide-80 HPLC analyzing method described in Example II-1.
Incidentally, the enzymatic activity values in Table 17 were expressed with such a unit as 1 Unit equals the activity of liberating 1 umol of each oligosaccharide per hour.

The target of experiment [6] is T3, recombinant novel amylase (Saccharolobus solfataricus, UniProt Q55088).
T3 sequence (Q55088 1-559): T1 sequence (Q55088 1-559)
The experiment can be described thus: Substrate specificity of the recombinant novel amylase (crude enzyme solution). The settings on record: for Liberated oligosaccharide / Production rate of mono- and disaccharides: 35.2 Units/ml crude enzyme solution, 10 mM substrate (amylopectin and soluble starch 3.0%); for Production rate of mono- and disaccharides: 1 Unit = 1 μmol per hour.

Where [7] appears, read: Concentration 5 mM, read-out: Residual activity.

Consider `O[C@H](CS)[C@H](O)CS` (racemic) [Dithiothreitol], for which the Residual activity in experiment [1] amounted to 106.0%; in experiment [3] (Concentration 5 mM) it was 84.5%. Besides, in experiment [2] (setting [7]), the remaining activity at 5000 µM stood at 116%.

As for `OCCS` [2-Mercaptoethanol], the Residual activity was found to be 104.1% in experiment [1], 141.7% in experiment [2] (Concentration 5 mM) and 100.3% in experiment [3] (Concentration 5 mM).

On to `O=[N+]([O-])[O-].[Ag+]` [AgNO3], for which the Residual activity in experiment [2] (Concentration 5 mM) came to 105.7%; in experiment [3] (Concentration 5 mM), 121.0%.

`[Ca+2].[Cl-].[Cl-]` [CaCl2]: the values for the Residual activity in experiment [1], in experiment [2] (Concentration 5 mM) and in experiment [3] (Concentration 5 mM) were 105.7%, 97.1% and 93.6%, respectively. Also, the “Activating or inhibitory effect” value in experiment [1] (added with the substrate), in experiment [2] and in experiment [3] was “would not be activated” each time.

`[Cl-].[Cl-].[Co+2]` [CoCl2]: the values for the Residual activity in experiment [1], in experiment [2] (Concentration 5 mM) and in experiment [3] (Concentration 5 mM) were 87.2%, 97.1% and 88.5%, respectively.

In the case of `O=C(O)CN(CCN(CC(=O)O)CC(=O)O)CC(=O)O` [EDTA], the Residual activity in experiment [2] was found to be 106.3%; in experiment [3], 96.8%.

Turning to `[Cl][Fe]([Cl])[Cl]` [FeCl3], the Residual activity in experiment [1] is given as 39.0%; in experiment [2] (Concentration 5 mM), 38.0%; in experiment [3] (Concentration 5 mM) it was 90.0%.

Turning to `O=S(=O)([O-])[O-].[Fe+2]` [FeSO4], the Residual activity is 74.1% in experiment [1], 73.5% in experiment [2] (Concentration 5 mM) and 108.3% in experiment [3] (Concentration 5 mM).

Turning to `OCC1OC(OC2OC(CO)C(OC3OC(CO)C(O)C(O)C3O)C(O)C2O)C(O)C(O)C1O` [Glucosyltrehalose, α-D-maltosyl α-D-glucopyranoside], in experiment [4], the Liberated oligosaccharide result is “Glucose + Trehalose”; the “Production rate of mono- and disaccharides” value stood at 0.04 units/ml. In experiment [5], the Liberated oligosaccharide result is given as “not decomposed”; the “Production rate of di- and trisaccharides” value came to 0 units/ml. Moreover, in experiment [6], the Liberated oligosaccharide entry is recorded as “Glucose + Trehalose”; the “Production rate of mono- and disaccharides” value is 0.01 units/ml.

Take `OC[C@H]1O[C@H](OC[C@H]2OC(O)[C@H](O)[C@@H](O)[C@@H]2O)[C@H](O)[C@@H](O)[C@@H]1O` (stereo partly drawn) [Isomaltose]: in experiment [4], the “Action of the enzyme on the substrate” value is “did not act”; the Liberated oligosaccharide result was “not decomposed”; the “Production rate of mono- and disaccharides” value is recorded as 0 units/ml. Also, in experiment [6], the “Action of the enzyme on the substrate” value is recorded as “did not act”; the Liberated oligosaccharide result is recorded as “not decomposed”; the “Production rate of mono- and disaccharides” value stood at 0 units/ml.

For `OC[C@H]1O[C@H](O[C@H]2O[C@H](CO)[C@@H](O[C@H]3O[C@H](CO)[C@@H](O[C@H]4O[C@H](CO)[C@@H](O[C@H]5O[C@H](CO)[C@@H](O[C@H]6O[C@H](CO)[C@@H](O[C@H]7O[C@H](CO)[C@@H](O)[C@H](O)[C@H]7O)[C@H](O)[C@H]6O)[C@H](O)[C@H]5O)[C@H](O)[C@H]4O)[C@H](O)[C@H]3O)[C@H](O)[C@H]2O)[C@H](O)[C@@H](O)[C@@H]1O` [Maltopentaosyltrehalose], in experiment [4], the Liberated oligosaccharide result was “G5 + Trehalose”; the “Production rate of mono- and disaccharides” value came out at 25.5 units/ml. In addition, in experiment [5], the Liberated oligosaccharide entry was “G3 + Maltosyltrehalose”; the “Production rate of di- and trisaccharides” value turned out to be 4.36 units/ml.

Consider `OCC1OC(OC2OC(CO)C(OC3OC(CO)C(OC4OC(CO)C(O)C(O)C4O)C(O)C3O)C(O)C2O)C(O)C(O)C1O` [Maltosyltrehalose, α-D-maltotriosyl α-D-glucopyranoside], for which, in experiment [4], the Liberated oligosaccharide result is on record as “G2 + Trehalose”; the “Production rate of mono- and disaccharides” value was 3.93 units/ml. Also, in experiment [5], the Liberated oligosaccharide entry was “not decomposed”; the “Production rate of di- and trisaccharides” value was 0 units/ml. For the same molecule, in experiment [6], the Liberated oligosaccharide entry was “G2 + Trehalose”; the “Production rate of mono- and disaccharides” value came to 4.52 units/ml.

In the case of `OC[C@H]1O[C@H](O[C@H]2O[C@H](CO)[C@@H](O[C@H]3O[C@H](CO)[C@@H](O[C@H]4O[C@H](CO)[C@@H](O[C@H]5O[C@H](CO)[C@@H](O[C@H]6O[C@H](CO)[C@@H](O)[C@H](O)[C@H]6O)[C@H](O)[C@H]5O)[C@H](O)[C@H]4O)[C@H](O)[C@H]3O)[C@H](O)[C@H]2O)[C@H](O)[C@@H](O)[C@@H]1O` [Maltotetraosyltrehalose], in experiment [4], the Liberated oligosaccharide entry is recorded as “G4 + Trehalose”; the “Production rate of mono- and disaccharides” value was 27.3 units/ml. Besides, in experiment [5], the Liberated oligosaccharide entry is listed as “G3 + Glucosyltrehalose”; the “Production rate of di- and trisaccharides” value was found to be 2.57 units/ml.

On to `OCC1OC(OC2OC(CO)C(OC3OC(CO)C(OC4OC(CO)C(OC5OC(CO)C(O)C(O)C5O)C(O)C4O)C(O)C3O)C(O)C2O)C(O)C(O)C1O` [Maltotriosyltrehalose, α-D-maltotetraosyl α-D-glucopyranoside], for which, in experiment [4], the Liberated oligosaccharide result was “G3 + Trehalose”; the “Production rate of mono- and disaccharides” value was found to be 25.0 units/ml. In addition, in experiment [5], the Liberated oligosaccharide entry is “G2 + Glucosyltrehalose”; the “Production rate of di- and trisaccharides” value is 0.03 units/ml. Besides, in experiment [6], the Liberated oligosaccharide result is recorded as “G3 + Trehalose”; the “Production rate of mono- and disaccharides” value turned out to be 35.21 units/ml.

Regarding `[Cl-].[Cl-].[Mg+2]` [MgCl2], the Residual activity in experiment [1] came out at 82.9%; in experiment [2] (Concentration 5 mM) it was 93.5%; in experiment [3] (Concentration 5 mM), 111.3%.

For the molecule `[Cl][Mn][Cl]` [MnCl2], the Residual activity in experiment [1] was determined as 91.2%; in experiment [2] (Concentration 5 mM), 101.8%; in experiment [3] (Concentration 5 mM), 74.2%.

On to `CCCCCCCCCCCCOS(=O)(=O)[O-].[Na+]` [SDS, sodium dodecyl sulfate], for which, in experiment [2] (setting [7]), the remaining activity at 5000 µM was determined as 0%. Further, the “Activating or inhibitory effect” value in experiment [2] and in experiment [3] was “inhibitory effects” in each case. Also, in experiment [3] (Concentration 5 mM), the Residual activity is reported as 0.0%.

Regarding `OC[C@H]1O[C@H](O[C@H]2O[C@H](CO)[C@@H](O)[C@H](O)[C@H]2O)[C@H](O)[C@@H](O)[C@@H]1O` [α,α-Trehalose, α,α-trehalose], in experiment [4], the “Action of the enzyme on the substrate” value is given as “did not act”; the Liberated oligosaccharide entry is “not decomposed”; the “Production rate of mono- and disaccharides” value was 0 units/ml. Besides, the remaining activity at 500 µM in experiment [2] (Concentration 0.5 mM, read-out: Residual activity) was determined as 98.2%. The Residual activity in experiment [3] (Concentration 0.5 mM) came out at 107.8%. In addition, in experiment [6], the “Action of the enzyme on the substrate” value is “did not act”; the Liberated oligosaccharide entry is listed as “not decomposed”; the “Production rate of mono- and disaccharides” value was determined as 0 units/ml.
